# Source: patent US11549017B2, “NIR to SWIR fluorescent compounds for imaging and detection” (PERKINELMER HEALTH SCIENCES, INC., priority 2017, dated 2023)
# Where “and” joins values, the source holds several entries; their conditions need not be identical. Equal entries are not always repeated.
# Experiments:
# Type in all cases: physicochemical
# [1] = Absorbance spectra / absorbance maximum in solvents (UV/vis spectrophotometer)
# Text: Normalized spectra thus obtained are shown in FIG. 1 for each fluorochrome compound. […]
# [2] = Fluorescence emission spectra with excitation at 980 nm (InGaAs NIR detector); settings: for fluorescence emission in water: aqueous solution
# Protocol: The emission of D2 was measured in acetonitrile (ACN), ethanol (EtOH), methanol (MeOH). Spectra were recorded on a Quantamaster 8075-21 fluorescence spectrophotometer equipped with a liquid nitrogen cooled cooled DSS-IGA020L/CUS InGaAs NIR detector with excitation at 980 nm and emission recorded from 1000 nm to 1200 nm. The emission spectra as illustrated in FIG. 2 are at equal absorbance at 980 nm for each solvent.
# The fluorescence spectra for an equal absorbance ˜0.13 solution of dyes A, B, C in dichloroethane were determined by exciting at 980 nm (Horiba (Quantamaster 8075-21), nitrogen cooled InGaAs detector) and compared them with a commercially available dye, IR-26 (obtained from Exciton) D as reference. Dye B is more than 2 fold brighter than the reference IR-26 in DCE as illustrated in FIG. 3.
# The fluorescence of dyes A, B and C were also determined in other solvents viz., methanol, ethanol, DMSO and water. […]
# [3] = Absorbance spectra / absorbance maximum in solvents (UV/vis spectrophotometer); remark: listed apart in the source
# [4] = DCE, excitation 980 nm, equal absorbance ~0.13
structure (smiles),measurement,setting,value
O=S(=O)([O-])CCC[N+]1=C(/C=C/C2=C(Cl)C(=C/C=c3/c4cccc5cccc(c54)n3CCCS(=O)(=O)O)/C3CCC2C3)c2cccc3cccc1c23 (centres unmarked) [D72],"Abs λmax (absorbance max, UV-Vis λmax)",[1]; methanol,~1030 nm
same,Abs λmax,"[1]; methanol, unit not given",1026
CCn1/c(=C/C=C2C(Cl)=C(/C=C/C3=[N+](CC)c4cccc5c(S(=O)(=O)[O-])ccc3c45)C3CCC/2C3)c2ccc(S(=O)(=O)O)c3cccc1c32 (centres unmarked) [B],% Fluorescence Relative to C,[2]; DCE,130.82%
same,Fluorescence Max,[2]; [4],1080 nm
same,% Fluorescence Relative to C,[2]; DMSO,80.53%
same,Fluorescence Max,"[2]; DMSO, excitation 980 nm",1092 nm
same,% Fluorescence Relative to C,[2]; EtOH,76.31%
same,Fluorescence Max,"[2]; EtOH, excitation 980 nm",1062 nm
same,% Fluorescence Relative to C,[2]; MeOH,94.80%
same,Fluorescence Max,"[2]; MeOH, excitation 980 nm",1056 nm
same,fluorescence emission in water,[2],highly quenched
same,brightness relative to the reference IR-26,"[2]; in DCE, excitation 980 nm, equal absorbance",more than 2 fold
O=C(O)CCCn1/c(=C/C=C/C=C/C=C/C2=[N+](CCCC(=O)O)c3ccc(S(=O)(=O)[O-])c4cccc2c34)c2cccc3c(S(=O)(=O)O)ccc1c32 [D74],"Abs λmax (absorbance max, UV-Vis λmax)",[1]; methanol,980 nm
O=S(=O)([O-])CCCC[N+]1=C(/C=C/C2=C(Cl)C(=C/C=c3\c4cccc5cccc(c54)n3CCCCS(=O)(=O)O)/CCC2)c2cccc3cccc1c23 [C],% Fluorescence Relative to C,[2]; DCE,1.00%
same,Fluorescence Max,[2]; [4],1062 nm
same,% Fluorescence Relative to C,[2]; DMSO,1.00%
same,Fluorescence Max,"[2]; DMSO, excitation 980 nm",1074 nm
same,% Fluorescence Relative to C,[2]; EtOH,1.00%
same,Fluorescence Max,"[2]; EtOH, excitation 980 nm",1046 nm
same,% Fluorescence Relative to C,[2]; MeOH,1.00%
same,Fluorescence Max,"[2]; MeOH, excitation 980 nm",1042 nm
same,fluorescence emission in water,[2],highly quenched
O=C(O)Cn1\c(=C/C=C/C=C/C=C/C2=[N+](CC(=O)O)c3ccc(S(=O)(=O)[O-])c4cccc2c34)c2cccc3c(S(=O)(=O)O)ccc1c32 [D19],"Abs λmax (absorbance max, UV-Vis λmax)",[1]; methanol,980 nm and ~1010 nm
O=C(O)CCCn1\c(=C/C=C/C=C/C=C/C2=[N+](CCCS(=O)(=O)O)c3ccc(S(=O)(=O)[O-])c4cccc2c34)c2cccc3c(S(=O)(=O)O)ccc1c32 [D13],"Abs λmax (absorbance max, UV-Vis λmax)",[1]; methanol,~980 nm
CCn1/c(=C/C=C2\CCCC(/C=C/C3=[N+](CC)c4cccc5c(S(=O)(=O)[O-])ccc3c45)=C2Cl)c2ccc(S(=O)(=O)O)c3cccc1c32 [A],% Fluorescence Relative to C,[2]; DCE,90.11%
same,Fluorescence Max,[2]; [4],1064 nm
same,% Fluorescence Relative to C,[2]; DMSO,29.46%
same,Fluorescence Max,"[2]; DMSO, excitation 980 nm",1080 nm
same,% Fluorescence Relative to C,[2]; EtOH,92.92%
same,Fluorescence Max,"[2]; EtOH, excitation 980 nm",1050 nm
same,% Fluorescence Relative to C,[2]; MeOH,86.00%
same,Fluorescence Max,"[2]; MeOH, excitation 980 nm",1046 nm
same,fluorescence emission in water,[2],highly quenched
Cn1/c(=C\C=C2C(Cl)=C(/C=C/C3=[N+](C)c4ccc(S(=O)(=O)[O-])c5cccc3c45)C3CCC\2C3)c2cccc3c(S(=O)(=O)O)ccc1c32 (centres unmarked) [D81],"Abs λmax (absorbance max, UV-Vis λmax)",[1]; methanol,~1026 nm
Cn1/c(=C\C=C2/CCCC(/C=C/C3=[N+](C)c4ccc(S(=O)(=O)[O-])c5cccc3c45)=C2Cl)c2cccc3c(S(=O)(=O)O)ccc1c32 [D82],"Abs λmax (absorbance max, UV-Vis λmax)",[1]; methanol,~1020 nm
O=S(=O)([O-])CCC[N+]1=C(/C=C/C2=C(Cl)C(=C/C=c3/c4cccc5c(S(=O)(=O)O)ccc(c54)n3CCCS(=O)(=O)O)/C3CCC2C3)c2cccc3c(S(=O)(=O)O)ccc1c23 (centres unmarked) [D15],"Abs λmax (absorbance max, UV-Vis λmax)",[1]; methanol,~1030 nm
O=S(=O)(O)CCCn1/c(=C\C=C2/CCCC(/C=C/C3=[N+](CCCS(=O)(=O)O)c4ccc(S(=O)(=O)[O-])c5cccc3c45)=C2Cl)c2cccc3c(S(=O)(=O)O)ccc1c32 [D85],"Abs λmax (absorbance max, UV-Vis λmax)",[1]; methanol,~1030 nm
CCn1\c(=C/C=C(/C=C/C2=[N+](CC)c3ccc(S(=O)(=O)O)c4cccc2c34)c2ccc(C(=O)O)cn2)c2cccc3c(S(=O)(=O)O)ccc1c32 [D71],"Abs λmax (absorbance max, UV-Vis λmax)",[1]; methanol,851 nm
O=C(O)C[N+]1=C(/C=C/C=C/C=C/C=c2/c3cccc4c(S(=O)(=O)O)ccc(c43)n2CCCS(=O)(=O)O)c2cccc3c(S(=O)(=O)[O-])ccc1c23 [D18],"Abs λmax (absorbance max, UV-Vis λmax)",[1]; methanol,970 nm and ~990 nm
O=C(O)CCCn1\c(=C/C=C/C=C/C=C/C2=[N+](CCCC(=O)O)c3ccc(S(=O)(=O)[O-])c4cccc2c34)c2cccc3c(S(=O)(=O)O)ccc1c32 [D17],"Abs λmax (absorbance max, UV-Vis λmax)",[1]; methanol,~990 nm
"ClC1=C(/C=C/c2cc(-c3ccccc3)[s+]c3ccccc23)CCC/C1=C\C=C1/C=C(c2ccccc2)Sc2ccccc21.[O-][Cl+3]([O-])([O-])[O-] [D (IR-26), IR-26, reference compound]",% Fluorescence Relative to C,[2]; DCE,58.89%
same,Fluorescence Max,[2]; [4],1118 nm
CCn1/c(=C\C=C2/CCCC(/C=C/C3=[N+](CC)c4ccc(S(=O)(=O)O)c5cccc3c45)=C2Cl)c2cccc3c(S(=O)(=O)O)ccc1c32 [compound 26],Absorption max,[1]; in Methanol,1022 nm
same,Absorption max,[1]; in Water,829 nm
same,Absorption max,[3]; in Acetonitrile,1019 nm
same,Absorption max,[3]; in Chloroform,820 nm
same,Absorption max,[3]; in DMSO,1069 nm and 1065 nm
same,Absorption max,[3]; in Dichloromethane,810 nm
same,Absorption max,[3]; in Ethanol,1032 nm
CC1(C)C(/C=C/C=C/C=C/C=c2/c3cccc4c(S(=O)(=O)O)ccc(c43)n2CCCC(=O)O)=[N+](CCCS(=O)(=O)[O-])c2ccc3c(S(=O)(=O)O)cc(S(=O)(=O)O)cc3c21 [D86],"Abs λmax (absorbance max, UV-Vis λmax)",[1]; methanol,~890 nm
CCOC(=O)C1(C(=O)OCC)CC(/C=C/C2=[N+](CCCS(=O)(=O)O)c3ccc(S(=O)(=O)[O-])c4cccc2c34)=CC(=C/C=c2\c3cccc4c(S(=O)(=O)O)ccc(c43)n2CCCS(=O)(=O)O)/C1 [D75],"Abs λmax (absorbance max, UV-Vis λmax)",[1]; methanol,990 nm
O=S(=O)([O-])CCC[N+]1=C(/C=C/C2=C(Cl)C(=C/C=c3/c4cccc5cccc(c54)n3CCCS(=O)(=O)O)/CCC2)c2cccc3cccc1c23 [D84],"Abs λmax (absorbance max, UV-Vis λmax)",[1]; methanol,~1020 nm
C[N+]1=C(/C=C/C=C/C=C/C=c2/c3cccc4c(S(=O)(=O)O)ccc(c43)n2CCCC(=O)O)c2cccc3c(S(=O)(=O)[O-])ccc1c23 [D20],"Abs λmax (absorbance max, UV-Vis λmax)",[1]; methanol,~980 nm
